Measurements published in ChEMBL document CHEMBL3991601, “The target landscape of clinical kinase drugs” (Science, 2017).
Calls of active or inactive are those of the source. Cut-off read from the data, not from the text of the source, for most assays here: actives have a measured Kd and inactives only a lower limit.

Tests used:
[1] = biological target: T1, Serine/threonine-protein kinase Nek3 (Homo sapiens, UniProt P51956)
T1 sequence (P51956 whole entry): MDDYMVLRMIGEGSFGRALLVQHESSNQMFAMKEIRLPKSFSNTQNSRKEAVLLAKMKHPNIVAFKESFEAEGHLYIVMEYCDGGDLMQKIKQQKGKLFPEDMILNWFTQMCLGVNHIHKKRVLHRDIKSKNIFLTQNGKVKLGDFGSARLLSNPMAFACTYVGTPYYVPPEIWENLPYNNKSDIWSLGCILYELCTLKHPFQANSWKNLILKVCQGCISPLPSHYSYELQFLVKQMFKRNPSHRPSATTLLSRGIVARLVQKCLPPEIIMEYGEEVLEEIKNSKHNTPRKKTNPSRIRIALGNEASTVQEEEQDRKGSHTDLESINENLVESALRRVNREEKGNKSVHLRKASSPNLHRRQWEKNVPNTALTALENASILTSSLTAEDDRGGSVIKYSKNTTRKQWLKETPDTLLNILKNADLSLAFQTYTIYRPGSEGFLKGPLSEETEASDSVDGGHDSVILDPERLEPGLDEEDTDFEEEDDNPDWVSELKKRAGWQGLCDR

[2] = biological target: Guanine nucleotide-binding protein G(i) subunit alpha-2 (Homo sapiens, UniProt P04899)
Guanine nucleotide-binding protein G(i) subunit alpha-2, sequence (P04899 whole entry): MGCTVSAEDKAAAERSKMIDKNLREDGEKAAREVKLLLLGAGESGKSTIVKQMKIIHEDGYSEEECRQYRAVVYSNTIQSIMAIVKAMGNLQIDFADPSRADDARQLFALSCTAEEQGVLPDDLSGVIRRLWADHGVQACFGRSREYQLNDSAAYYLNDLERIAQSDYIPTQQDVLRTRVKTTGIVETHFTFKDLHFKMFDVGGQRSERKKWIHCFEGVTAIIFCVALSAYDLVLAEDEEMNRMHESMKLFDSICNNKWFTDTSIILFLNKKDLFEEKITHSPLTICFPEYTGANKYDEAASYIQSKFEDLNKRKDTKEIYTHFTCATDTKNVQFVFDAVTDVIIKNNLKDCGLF

[3] = biological target: T2, Mitogen-activated protein kinase kinase kinase kinase 3 (Homo sapiens, UniProt Q8IVH8)
T2 sequence (Q8IVH8 whole entry): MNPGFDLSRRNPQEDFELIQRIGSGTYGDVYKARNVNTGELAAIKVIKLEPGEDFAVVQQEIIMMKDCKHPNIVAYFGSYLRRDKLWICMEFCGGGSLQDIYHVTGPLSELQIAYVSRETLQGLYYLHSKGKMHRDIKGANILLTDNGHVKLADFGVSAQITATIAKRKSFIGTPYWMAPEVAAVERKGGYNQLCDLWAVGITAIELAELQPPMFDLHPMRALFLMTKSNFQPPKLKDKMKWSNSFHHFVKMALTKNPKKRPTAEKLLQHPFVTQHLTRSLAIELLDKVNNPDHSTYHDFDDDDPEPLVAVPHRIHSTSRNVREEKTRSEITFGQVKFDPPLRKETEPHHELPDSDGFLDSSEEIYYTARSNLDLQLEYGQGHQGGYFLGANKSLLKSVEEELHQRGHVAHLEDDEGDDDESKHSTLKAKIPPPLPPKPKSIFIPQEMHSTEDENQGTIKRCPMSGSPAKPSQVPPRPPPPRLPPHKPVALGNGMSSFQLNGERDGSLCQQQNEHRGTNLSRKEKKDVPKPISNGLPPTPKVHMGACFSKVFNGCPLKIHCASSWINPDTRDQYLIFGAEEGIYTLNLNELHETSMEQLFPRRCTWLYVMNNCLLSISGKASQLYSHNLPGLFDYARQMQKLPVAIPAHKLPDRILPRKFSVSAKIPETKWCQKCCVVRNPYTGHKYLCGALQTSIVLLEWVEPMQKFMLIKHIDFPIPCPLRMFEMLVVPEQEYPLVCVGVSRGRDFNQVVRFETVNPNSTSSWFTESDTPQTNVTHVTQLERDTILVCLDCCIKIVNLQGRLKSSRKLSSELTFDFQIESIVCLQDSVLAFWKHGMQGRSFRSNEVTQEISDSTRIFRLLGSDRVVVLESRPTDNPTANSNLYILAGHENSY

[4] = biological target: T3, NUAK family SNF1-like kinase 2 (Homo sapiens, UniProt Q9H093)
T3 sequence (Q9H093 whole entry): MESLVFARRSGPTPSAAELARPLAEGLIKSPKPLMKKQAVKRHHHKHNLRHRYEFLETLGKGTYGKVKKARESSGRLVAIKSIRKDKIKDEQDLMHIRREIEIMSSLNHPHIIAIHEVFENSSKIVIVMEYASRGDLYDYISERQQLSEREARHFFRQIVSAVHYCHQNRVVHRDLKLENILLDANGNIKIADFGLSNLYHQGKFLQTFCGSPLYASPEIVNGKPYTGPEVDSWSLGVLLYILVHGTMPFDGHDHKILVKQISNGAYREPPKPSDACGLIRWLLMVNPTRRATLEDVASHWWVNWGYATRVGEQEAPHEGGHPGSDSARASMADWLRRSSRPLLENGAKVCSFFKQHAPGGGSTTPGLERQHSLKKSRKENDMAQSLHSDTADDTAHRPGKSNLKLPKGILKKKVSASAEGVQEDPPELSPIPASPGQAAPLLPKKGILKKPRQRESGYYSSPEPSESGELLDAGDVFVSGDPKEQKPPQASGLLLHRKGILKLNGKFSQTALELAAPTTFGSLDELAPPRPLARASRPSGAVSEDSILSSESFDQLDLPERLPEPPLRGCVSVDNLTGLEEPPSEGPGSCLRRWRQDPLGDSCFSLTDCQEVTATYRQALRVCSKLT

[5] = biological target: Ephrin type-A receptor 4 (Homo sapiens, UniProt P54764)
Ephrin type-A receptor 4, sequence (P54764 whole entry): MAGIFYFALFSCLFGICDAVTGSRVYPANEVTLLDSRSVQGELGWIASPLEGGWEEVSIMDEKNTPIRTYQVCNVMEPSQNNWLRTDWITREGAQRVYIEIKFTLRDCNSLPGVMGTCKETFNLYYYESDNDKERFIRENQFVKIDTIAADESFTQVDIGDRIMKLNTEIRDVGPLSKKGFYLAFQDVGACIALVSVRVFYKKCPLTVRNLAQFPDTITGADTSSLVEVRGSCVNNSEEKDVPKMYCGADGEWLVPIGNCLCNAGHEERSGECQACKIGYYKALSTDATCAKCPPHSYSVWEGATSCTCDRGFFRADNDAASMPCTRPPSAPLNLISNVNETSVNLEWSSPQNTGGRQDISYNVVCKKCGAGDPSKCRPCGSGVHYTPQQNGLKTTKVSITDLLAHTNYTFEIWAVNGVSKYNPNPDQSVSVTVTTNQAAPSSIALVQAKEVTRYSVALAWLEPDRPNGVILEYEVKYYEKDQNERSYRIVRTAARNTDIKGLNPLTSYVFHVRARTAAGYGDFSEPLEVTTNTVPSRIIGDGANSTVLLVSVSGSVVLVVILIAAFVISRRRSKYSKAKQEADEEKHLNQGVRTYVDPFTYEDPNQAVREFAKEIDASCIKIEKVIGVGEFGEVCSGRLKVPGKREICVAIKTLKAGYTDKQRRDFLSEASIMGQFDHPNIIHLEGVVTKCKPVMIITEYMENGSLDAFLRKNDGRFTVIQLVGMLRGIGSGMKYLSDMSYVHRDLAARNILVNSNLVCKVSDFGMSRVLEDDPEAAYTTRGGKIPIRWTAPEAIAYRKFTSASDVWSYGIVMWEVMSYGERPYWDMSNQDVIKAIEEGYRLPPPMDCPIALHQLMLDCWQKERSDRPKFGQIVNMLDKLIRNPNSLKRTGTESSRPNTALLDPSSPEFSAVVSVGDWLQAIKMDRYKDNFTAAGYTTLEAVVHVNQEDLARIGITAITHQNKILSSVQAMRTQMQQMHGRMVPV

[6] = biological target: Tyrosine-protein kinase Fer (Homo sapiens, UniProt P16591)
Tyrosine-protein kinase Fer, sequence (P16591 whole entry): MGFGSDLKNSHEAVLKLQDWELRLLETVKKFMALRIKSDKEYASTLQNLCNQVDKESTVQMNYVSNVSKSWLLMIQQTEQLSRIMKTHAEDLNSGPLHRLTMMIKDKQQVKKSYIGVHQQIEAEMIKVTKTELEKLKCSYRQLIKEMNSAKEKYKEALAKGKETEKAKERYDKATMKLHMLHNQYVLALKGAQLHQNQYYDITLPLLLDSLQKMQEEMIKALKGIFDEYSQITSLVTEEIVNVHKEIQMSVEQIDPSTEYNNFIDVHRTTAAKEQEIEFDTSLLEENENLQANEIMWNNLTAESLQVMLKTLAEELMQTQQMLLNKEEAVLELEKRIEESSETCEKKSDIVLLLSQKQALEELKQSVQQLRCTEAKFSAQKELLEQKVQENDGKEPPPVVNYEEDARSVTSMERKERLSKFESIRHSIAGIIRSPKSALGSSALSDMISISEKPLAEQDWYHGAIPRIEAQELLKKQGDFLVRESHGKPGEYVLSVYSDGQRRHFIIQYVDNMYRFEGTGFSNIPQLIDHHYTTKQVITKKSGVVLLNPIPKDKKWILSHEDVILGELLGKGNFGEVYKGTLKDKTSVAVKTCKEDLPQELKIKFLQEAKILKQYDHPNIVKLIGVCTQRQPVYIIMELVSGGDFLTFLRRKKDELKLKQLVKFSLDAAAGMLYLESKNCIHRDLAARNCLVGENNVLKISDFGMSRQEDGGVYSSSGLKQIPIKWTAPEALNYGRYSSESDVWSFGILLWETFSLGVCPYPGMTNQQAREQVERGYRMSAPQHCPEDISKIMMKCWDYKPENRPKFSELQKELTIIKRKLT

[7] = biological target: Ribosomal protein S6 kinase alpha-6 (Homo sapiens, UniProt Q9UK32)
Ribosomal protein S6 kinase alpha-6, sequence (Q9UK32 whole entry): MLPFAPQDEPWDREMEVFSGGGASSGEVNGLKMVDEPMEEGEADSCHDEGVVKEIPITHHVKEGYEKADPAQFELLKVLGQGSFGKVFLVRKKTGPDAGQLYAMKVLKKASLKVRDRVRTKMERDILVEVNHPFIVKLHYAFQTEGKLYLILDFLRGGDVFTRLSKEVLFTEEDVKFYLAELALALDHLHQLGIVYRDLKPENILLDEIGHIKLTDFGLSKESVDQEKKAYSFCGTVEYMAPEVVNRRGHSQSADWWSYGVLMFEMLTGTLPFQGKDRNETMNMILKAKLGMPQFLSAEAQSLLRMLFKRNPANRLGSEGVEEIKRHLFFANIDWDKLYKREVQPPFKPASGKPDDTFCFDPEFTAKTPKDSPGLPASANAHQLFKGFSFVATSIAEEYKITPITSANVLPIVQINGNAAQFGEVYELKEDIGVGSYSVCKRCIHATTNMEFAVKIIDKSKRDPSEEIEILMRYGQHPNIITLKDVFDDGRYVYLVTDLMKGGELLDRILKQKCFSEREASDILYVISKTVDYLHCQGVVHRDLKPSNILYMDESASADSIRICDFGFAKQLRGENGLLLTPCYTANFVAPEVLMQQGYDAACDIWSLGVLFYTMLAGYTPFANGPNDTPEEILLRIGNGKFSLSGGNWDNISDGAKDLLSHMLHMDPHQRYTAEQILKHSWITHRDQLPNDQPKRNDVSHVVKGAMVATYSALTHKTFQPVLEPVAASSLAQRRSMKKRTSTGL

[8] = biological target: T4, Serine/threonine-protein kinase ICK (Homo sapiens, UniProt Q9UPZ9)
T4 sequence (Q9UPZ9 whole entry): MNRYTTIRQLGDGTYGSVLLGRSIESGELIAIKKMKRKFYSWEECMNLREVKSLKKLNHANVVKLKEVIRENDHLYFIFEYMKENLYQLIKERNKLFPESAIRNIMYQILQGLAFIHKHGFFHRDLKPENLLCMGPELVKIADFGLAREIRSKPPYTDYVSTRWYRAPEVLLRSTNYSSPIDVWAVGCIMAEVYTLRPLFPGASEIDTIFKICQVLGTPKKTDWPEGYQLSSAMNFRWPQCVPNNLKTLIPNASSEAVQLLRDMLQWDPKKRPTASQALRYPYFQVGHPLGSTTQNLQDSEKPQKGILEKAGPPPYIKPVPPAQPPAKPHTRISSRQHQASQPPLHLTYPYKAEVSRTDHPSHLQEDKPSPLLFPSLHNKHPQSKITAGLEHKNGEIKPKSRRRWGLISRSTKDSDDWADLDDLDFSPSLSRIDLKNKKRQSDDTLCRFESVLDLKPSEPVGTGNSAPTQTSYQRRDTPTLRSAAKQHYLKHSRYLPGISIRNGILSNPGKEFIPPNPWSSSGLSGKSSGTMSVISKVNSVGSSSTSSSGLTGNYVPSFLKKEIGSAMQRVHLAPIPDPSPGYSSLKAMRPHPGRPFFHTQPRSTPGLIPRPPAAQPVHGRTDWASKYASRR
Note: in the data inactive means no Kd found up to 30 µM.

| SMILES | Kd [2] | Kd [1] | Kd [3] | Kd [4] | Kd [5] | Kd [6] | Kd [7] | Kd [8] |
| --- | --- | --- | --- | --- | --- | --- | --- | --- |
| O=c1[nH]c([C@@H]2CCCN2)nc2c1oc1ccc(Cl)cc12 | > 30 µM (inactive) | > 30 µM (inactive) | > 30 µM (inactive) | > 30 µM (inactive) | > 30 µM (inactive) | > 30 µM (inactive) | > 30 µM (inactive) |  |
| Cc1c(NC(=O)OC[C@@H]2COCCN2)cn2ncnc(Nc3ccc4c(cnn4Cc4cccc(F)c4)c3)c12 [AC-480] | > 30 µM (inactive) | > 30 µM (inactive) | > 30 µM (inactive) | > 30 µM (inactive) | > 30 µM (inactive) | > 30 µM (inactive) | > 30 µM (inactive) |  |
| CN(C)C/C=C/C(=O)Nc1cc2c(Nc3ccc(F)c(Cl)c3)ncnc2cc1O[C@H]1CCOC1 [AFATINIB] | > 30 µM (inactive) |  |  |  |  |  |  |  |
| S=C(NCc1ccc2c(c1)OCO2)N1CCN(c2ncnc3c2oc2ccccc23)CC1 [AMUVATINIB] | > 30 µM (inactive) | > 30 µM (inactive) | > 30 µM (inactive) | > 30 µM (inactive) | > 30 µM (inactive) | > 30 µM (inactive) | > 30 µM (inactive) |  |
| NC[C@@](O)(c1ccc(Cl)cc1)c1ccc(-c2cn[nH]c2)cc1 [AT-13148] | > 30 µM (inactive) | > 30 µM (inactive) | > 30 µM (inactive) | > 30 µM (inactive) | > 30 µM (inactive) | > 30 µM (inactive) | > 30 µM (inactive) |  |
| COc1ccc(-c2ccc3ncc4c(c3c2)n(-c2ccc(N3CCNCC3)c(C(F)(F)F)c2)c(=O)n4C)cn1 [BGT-226 FREE BASE] |  | > 30 µM (inactive) | > 30 µM (inactive) | > 30 µM (inactive) | > 30 µM (inactive) | > 30 µM (inactive) | > 30 µM (inactive) | > 30 µM (inactive) |
| CC[C@@](C)(Nc1ccnc(-c2c[nH]c3ncccc23)n1)C(=O)NCC(F)(F)F [DECERNOTINIB] |  | > 30 µM (inactive) | > 30 µM (inactive) | > 30 µM (inactive) | > 30 µM (inactive) | > 30 µM (inactive) | > 30 µM (inactive) | > 30 µM (inactive) |
| CNC(=O)c1ccc(Nc2ncc(C(F)(F)F)c(NCc3nccnc3N(C)S(C)(=O)=O)n2)cc1 [DEFACTINIB] |  | > 30 µM (inactive) | > 30 µM (inactive) | 0.454 µM | > 30 µM (inactive) | 1.3 µM (active) | > 30 µM (inactive) | > 30 µM (inactive) |
| O=S(=O)(c1cccc2cnccc12)N1CCCNCC1 [FASUDIL] | > 30 µM (inactive) | > 30 µM (inactive) | > 30 µM (inactive) | > 30 µM (inactive) | > 30 µM (inactive) | > 30 µM (inactive) | > 30 µM (inactive) |  |
| Cc1c(Cn2c(C)nc3c(C(=O)O)cc(N4CCOCC4)cc32)cccc1C(F)(F)F [GSK-2636771] |  | > 30 µM (inactive) | > 30 µM (inactive) | > 30 µM (inactive) | > 30 µM (inactive) | > 30 µM (inactive) | > 30 µM (inactive) | > 30 µM (inactive) |
| N#CCNC(=O)c1ccc(-c2ccnc(Nc3ccc(N4CCOCC4)cc3)n2)cc1 [MOMELOTINIB] | > 30 µM (inactive) | 0.286 µM (active) |  | > 30 µM (inactive) | > 30 µM (inactive) | > 30 µM (inactive) | > 30 µM (inactive) |  |

Further lines, with some results ahead:

| Kd [2] | SMILES | Kd [1] | Kd [3] | Kd [4] | Kd [5] | Kd [6] | Kd [7] | Kd [8] |
| --- | --- | --- | --- | --- | --- | --- | --- | --- |
| > 30 µM (inactive) | C[C@@]1(C(=O)Nc2ccc(F)nc2)CCCN1c1nc(Nc2cc(C3CC3)n[nH]2)c2cccn2n1 [BMS-754807] |  |  |  |  |  |  |  |
| > 30 µM (inactive) | CC1(C)CNc2cc(NC(=O)c3cccnc3NCc3ccncc3)ccc21 [MOTESANIB] |  |  |  |  |  |  |  |
| > 30 µM (inactive) | O=C(NC[C@H](O)CO)c1ccncc1Nc1ccc(I)cc1F [PIMASERTIB] | > 30 µM (inactive) | > 30 µM (inactive) |  | > 30 µM (inactive) | > 30 µM (inactive) | > 30 µM (inactive) |  |
| > 30 µM (inactive) | Cn1cnc2c(F)c(Nc3ccc(Br)cc3Cl)c(C(=O)NOCCO)cc21 [SELUMETINIB] |  |  |  |  |  |  |  |
